Test results from US20240293566A1, “ANTI-EGFRvIII ANTIBODY DRUG CONJUGATES AND USES THEREOF” (Regeneron Pharmaceuticals, Inc., priority 2021, published 2024).

Legend:
U251 MG parental cells = test: In vitro cytotoxicity (nuclear counts after 6-day treatment), mono-culture; format: cell-based
Excerpt: (§1) To determine the relative cell-killing potency of anti-EGFRvIII antibody drug conjugates of the invention, cell-killing assays were run on a cell line expressing human EGFRvIII. To develop the cell line, Lipofectamine LTX with Plus Reagent was used to generate U251 cells (Sigma, #9063001) expressing human EGFRvIII (hEGFRvIII; amino acids 1 through 380 of accession number NP_005219.2 with a deletion of amino acids 30 through 297 and creation of a junctional glycine residue, i.e. SEQ ID NO: 25) here in referred to as U251 MG/hEGFRvIII. The U251 lines were maintained in complete growth media (MEM Earle's Salts+10% FBS+1% L-glutamine/penicillin/streptomycin+1% non-essential amino acids+sodium pyruvate).
(§2) To measure the in vitro cytotoxicity of anti-EGFRvIII antibody drug conjugates, nuclear counts after a 6-day treatment with the antibody drug conjugates were assessed. […] Nuclear counts were determined via Harmony image analysis software (PerkinELmer), and cell viability was expressed as a percentage of the untreated (100% viable) cells. IC50 values were determined using a four-parameter logistic equation over a 10-point dose response curve (GraphPad Prism). The maximum % kill was also determined for each test article as follows: 100-minimum percent viability.

U251MG in coculture = test: Bystander killing assay, 1:1 coculture, far red negative population; format: cell-based; conditions: 6 days
Description: Bystander killing by an ADC can take place when the cytotoxic payload is released from the target cells and is then taken up by surrounding antigen-negative (bystander) cells. […] A 1:1 coculture of 1500 cells/well of far red labeled U251 MG/hEGFRvIII cells and 1500 cells/well unlabeled U251 MG cells were incubated with either ADC or free payload M31 at a range of concentrations (100 nM to 1.5 pM) for 6 days. Cells were subsequently treated with 3 ug/mL of Hoechst 33342 nuclear stain (ThermoFisher, #H3570) while being fixed with 4% formaldehyde (ThermoFisher, #28908). Images were acquired on the Opera Phenix Microscope (PerkinELmer). All cells were identified by the Hoechst-labeled nuclei and cell counts were separated into far red positive U251 MG/hEGFRvIII cells (U251 in coculture) and far red negative parental U251 MG cell populations via Harmony image analysis software (PerkinELmer). Cell viability was determined separately for each cell population and expressed as a percentage of the untreated (100% viable) cells.

U251 MG/hEGFRvIII cells = test: In vitro cytotoxicity (nuclear counts after 6-day treatment), mono-culture; format: cell-based, human
Excerpt: as §1, §2

[1] = system: U251MG/hEGFRvIII in coculture; test: Bystander killing assay, 1:1 coculture, far red positive population; format: cell-based, human; conditions: 6 days
Description: Bystander killing by an ADC can take place when the cytotoxic payload is released from the target cells and is then taken up by surrounding antigen-negative (bystander) cells. […] Cells were subsequently treated with 3 ug/mL of Hoechst 33342 nuclear stain (ThermoFisher, #H3570) while being fixed with 4% formaldehyde (ThermoFisher, #28908). Images were acquired on the Opera Phenix Microscope (PerkinELmer). All cells were identified by the Hoechst-labeled nuclei and cell counts were separated into far red positive U251 MG/hEGFRvIII cells (U251 in coculture) and far red negative parental U251 MG cell populations via Harmony image analysis software (PerkinELmer). Cell viability was determined separately for each cell population and expressed as a percentage of the untreated (100% viable) cells.

U251/EGFRvIII xenografts = test: Subcutaneous U251/EGFRvIII xenograft, comparison with COMP-MMAF (Example 11); format: in vivo, SCID mice; conditions: for Tumor growth (mm^3) from start of treatment (mean ± SD) / Tumor volume (mm^3) at termination of vehicle group (mean ± SD): Day 36 post-treatment
Description: For the initial xenograft study, U251/EGFRvIII tumors were established by the subcutaneous implantation of 10×10^6 cells mixed 1:1 with Matrigel on the right flank of male SCID mice. Tumors were grown to ˜175 mm^3 before treatment initiation, approximately 30 days post-implantation. Mice were randomized into groups of 8 and treated with a single dose of test or control ADCs. Tumor growth was monitored for 71 days post-treatment.

[2] = system: Orthotopically placed GBM59 GBM PDX tumors; test: Intracranial orthotopic GBM59 PDX survival, comparison with COMP-MMAF (Example 11); format: in vivo, mice
Description: Intracranial injection was performed at 1 mm anterior and 2 mm lateral to the bregma at a depth of 3 mm. All orthotopic GBM PDX studies were conducted by Translational Drug Development Inc. Orthotopic GBM59 PDX were allowed to establish for 25 days before mice were randomized into groups of 8 and treated with a single dose of test or control ADCs. Mice were monitored for 94 days for signs of peri-morbidity and euthanized prior to reaching a moribund state.

COc1cc2c(cc1OCCCCCOc1cc3c(cc1OC)C(=O)N1C=C(C)C[C@H]1C=N3)N=C[C@@H]1CC(C)=CN1C2=O [SG3199]
IC50 (U251 MG parental cells; Homo sapiens, U-251, 144 h): 2 pM | % Kill (maximum) (U251 MG parental cells; U251MG mono-culture, 6 days): 93% | % Kill (maximum) (U251MG in coculture): 94% | IC50 (U251MG in coculture; Homo sapiens, U-251, 144 h): 7 pM | IC50 (U251 MG/hEGFRvIII cells; Homo sapiens, U-251, 144 h): 10 pM | % Kill (maximum) (U251 MG/hEGFRvIII cells; U251MG/hEGFRvIII mono-culture, 6 days): 92% | % Kill (maximum) [1]: 91% | IC50 ([1]; Homo sapiens, U-251, 144 h): 10 pM

COMP-MMAF: ABT-414 (hu806) antibody conjugated to monomethyl auristatin F (MMAF) via non-cleavable linker
Anti-tumor activity (U251/EGFRvIII xenografts; COMP-MMAF 2.5 mg/kg): Activity against tumors was seen | Anti-tumor activity (U251/EGFRvIII xenografts; COMP-MMAF 5 mg/kg, 71 days post-dosing): sustained activity similar to that resulting from treatment with REGN3124-tesirine | Tumor growth (mm^3) from start of treatment (mean ± SD) (U251/EGFRvIII xenografts; ADC dose 1 mg/kg): 423 ± 324 mm^3 | Tumor volume (mm^3) at termination of vehicle group (mean ± SD) (U251/EGFRvIII xenografts; ADC dose 1 mg/kg): 595 ± 325 mm^3 | Tumor growth (mm^3) from start of treatment (mean ± SD) (U251/EGFRvIII xenografts; ADC dose 2.5 mg/kg): 6 ± 36 mm^3 | Tumor volume (mm^3) at termination of vehicle group (mean ± SD) (U251/EGFRvIII xenografts; ADC dose 2.5 mg/kg): 183 ± 51 mm^3 | Tumor growth (mm^3) from start of treatment (mean ± SD) (U251/EGFRvIII xenografts; ADC dose 5 mg/kg): −36 ± 22 mm^3 | Tumor volume (mm^3) at termination of vehicle group (mean ± SD) (U251/EGFRvIII xenografts; ADC dose 5 mg/kg): 136 ± 16 mm^3 | Anti-tumor activity (U251/EGFRvIII xenografts; REGN3124-tesirine 0.53 mg/kg ADC (7 ug/kg PBD payload), COMP-MMAF 1 mg/kg, isotype controls all dose levels): Sustained regression was not observed | N = 8 survival at Day 94 ([2]; ADC dose 1 (mg/kg)): 0/8 | median survival ([2]; ADC dose 1 (mg/kg)): 13.5 days | N = 8 survival at Day 94 ([2]; ADC dose 5 (mg/kg), MMAF ADCs): 0/8 | median survival ([2]; ADC dose 5 (mg/kg), MMAF ADCs): 23.5 days | Effect on survival relative to the MMAF control ([2]; COMP-MMAF 5 mg/kg): some increase in survival | Time within which all mice succumbed to tumor burden ([2]; COMP-MMAF 5 mg/kg): ≤ 35 days of treatment | Effect on survival ([2]; REGN3124-tesirine DAR 1.9, 7 ug/kg payload, COMP-MMAF 1 mg/kg, controls): did not induce a significant increase in survival
